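Tested at 5 concentrations; 48 h exposure; 96-well plates; endpoints linearly interpolated, else capped at highest concentration. The concentration for 50% growth inhibition is given as GI50.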 Calls of active or inactive are those of the source. Cut-off read from the data, not from the text of the source: active = GI50 up to about 1.1 µM and inactive = higher.
Experiments:
Experiment in all cases: NCI tumour cell line growth inhibition, 48 h
A549 = test system: A549
ACHN = test system: ACHN
EKVX = test system: EKVX
HCT-15 = test system: HCT-15
HL-60 = test system: HL-60
LOX IMVI = test system: LOX IMVI
M14 = test system: M14
MCF7 = test system: MCF7
MDA-N = test system: MDA-N
MOLT-4 = test system: MOLT-4
NCI-H522 = test system: NCI-H522
OVCAR-8 = test system: OVCAR-8
RXF 393 = test system: RXF 393
SK-MEL-28 = test system: SK-MEL-28
SW-620 = test system: SW-620
T47D = test system: T47D
UACC-257 = test system: UACC-257
SNB-75 = test system: SNB-75

Compound	GI50 (A549)	GI50 (ACHN)	GI50 (EKVX)	GI50 (HCT-15) [µM]	GI50 (HL-60)	GI50 (LOX IMVI)	GI50 (M14)	GI50 (MCF7)	GI50 (MDA-N)	GI50 (MOLT-4)	GI50 (NCI-H522)	GI50 (OVCAR-8)	GI50 (RXF 393)	GI50 (SK-MEL-28)	GI50 (SW-620)	GI50 (T47D)	GI50 (UACC-257)	GI50 (SNB-75)
CC(=O)N[C@@H](Cc1ccc(O)cn1)C(=O)NCc1ccc(Cl)cc1	> 100 µM (inactive)	> 100 µM (inactive)	> 100 µM (inactive)	> 100	> 100 µM (inactive)	> 100 µM (inactive)	> 100 µM (inactive)	> 100 µM (inactive)	> 100 µM (inactive)	> 100 µM (inactive)	> 100 µM (inactive)	> 100 µM (inactive)	> 100 µM (inactive)	> 100 µM (inactive)	> 100 µM (inactive)	94 µM (inactive)	47.5 µM (inactive)	
CCCCN(CCCC)C(=O)/C(CC(=O)c1cccc2ccccc12)=N\NC(=O)c1cc2ccccc2cc1O	21.1 µM (inactive)	16.9 µM (inactive)	21.6 µM (inactive)		3.2 µM (inactive)	13 µM (inactive)	21.9 µM (inactive)			7.83 µM (inactive)		16.4 µM (inactive)	24.8 µM (inactive)	26 µM (inactive)	32 µM (inactive)		21.1 µM (inactive)	13.4 µM (inactive)
C=CCC1(CN(C)C)CC/C(=C\c2ccc3c(c2)OCO3)C1=O (stereo not given)	74.1 µM (inactive)	31.6 µM (inactive)	18.1 µM (inactive)	39.4	4.32 µM (inactive)	97.1 µM (inactive)	56.9 µM (inactive)			27.3 µM (inactive)	17.9 µM (inactive)	48.4 µM (inactive)	59.8 µM (inactive)	> 100 µM (inactive)	35.1 µM (inactive)		40.7 µM (inactive)	> 100 µM (inactive)
CCCCN/C(=N\C#N)N(Cc1ccccc1)Cc1ccccc1	37.2 µM (inactive)	29.7 µM (inactive)	28.2 µM (inactive)	16.3	18.9 µM (inactive)	15.5 µM (inactive)	20.1 µM (inactive)			17.5 µM (inactive)	15 µM (inactive)	37 µM (inactive)	45.2 µM (inactive)	34.2 µM (inactive)	16 µM (inactive)		20.5 µM (inactive)	31.5 µM (inactive)
CCOC(=O)/C(=C\NC#N)c1nc2ccccc2[nH]1	> 100 µM (inactive)	30.2 µM (inactive)	> 100 µM (inactive)	91	45.5 µM (inactive)	> 100 µM (inactive)	> 100 µM (inactive)	> 100 µM (inactive)	> 100 µM (inactive)	5.75 µM (inactive)	68.5 µM (inactive)	> 100 µM (inactive)	> 100 µM (inactive)	> 100 µM (inactive)	> 100 µM (inactive)		> 100 µM (inactive)	> 100 µM (inactive)
CCOC(=O)[C@@]12C3C=CC(CC3)[C@]1(C(=O)c1ccccc1)C(=O)C(=O)N2c1ccccc1 (stereo not given in full)	> 100 µM (inactive)	> 100 µM (inactive)		> 100			> 100 µM (inactive)	> 100 µM (inactive)	> 100 µM (inactive)	> 100 µM (inactive)	> 100 µM (inactive)	> 100 µM (inactive)	> 100 µM (inactive)	> 100 µM (inactive)	> 100 µM (inactive)	> 100 µM (inactive)		
CCCc1c(OC)c(=O)c2c(O)cc(OC)c3c4c(OC)cc(O)c5c(=O)c(OC)c(CCC)c(c1c23)c54	1.32 µM (inactive)	4.51 µM (inactive)	2.58 µM (inactive)	2.9		1.63 µM (inactive)	2.05 µM (inactive)	3.43 µM (inactive)	4.05 µM (inactive)	1.6 µM (inactive)	1.53 µM (inactive)	0.944 µM (active)		5.68 µM (inactive)	3.15 µM (inactive)		13.4 µM (inactive)	1.59 µM (inactive)

— ChEMBL document CHEMBL1201862, “PubChem BioAssay data set” (2004)
